Assay results from patent US9296725B2, “Heterocyclyl pyrimidine analogues as TYK2 inhibitors” (Cellzome Limited, priority 2012, dated 2016).

Tests used:
TYK2 = molecular target: T1, TYK2 (Homo sapiens, UniProt P29597); test: Kinobeads assay, TYK2 (competition binding in mixed Molt4/Ramos cell lysate, dot blot detection); conditions: Kinobeads assay, Molt4/Ramos lysate; read-out: TYK2 Band (Kinobeads assay potency, IC50)
T1 construct: endogenous in cells; host or cells: Molt4 (ATCC CRL-1582) and Ramos (ATCC CRL-1596), mixed lysate 1:2
Summary of the method: (§1)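 Competition binding: compound dilutions (1:3 series, 9 steps) plus immobilized aminopyrido-pyrimidine beads incubated 3 h in the cold with mixed Molt4/Ramos lysate (1:2) at 10 mg/mL protein. Bead-bound JAK2/TYK2 eluted and quantified by antibody dot blot with infrared detection; IC50 from dose-response curves.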

JAK2 = molecular target: T2, JAK2 (Homo sapiens, UniProt O60674); test: Kinobeads assay, JAK2 (competition binding in mixed Molt4/Ramos cell lysate, dot blot detection); conditions: read-out: JAK2 Band (Kinobeads assay potency, IC50)
T2 construct: endogenous in cells; host or cells: Molt4 (ATCC CRL-1582) and Ramos (ATCC CRL-1596), mixed lysate 1:2
Summary of the method: as §1

T2 sequence (O60674 whole entry): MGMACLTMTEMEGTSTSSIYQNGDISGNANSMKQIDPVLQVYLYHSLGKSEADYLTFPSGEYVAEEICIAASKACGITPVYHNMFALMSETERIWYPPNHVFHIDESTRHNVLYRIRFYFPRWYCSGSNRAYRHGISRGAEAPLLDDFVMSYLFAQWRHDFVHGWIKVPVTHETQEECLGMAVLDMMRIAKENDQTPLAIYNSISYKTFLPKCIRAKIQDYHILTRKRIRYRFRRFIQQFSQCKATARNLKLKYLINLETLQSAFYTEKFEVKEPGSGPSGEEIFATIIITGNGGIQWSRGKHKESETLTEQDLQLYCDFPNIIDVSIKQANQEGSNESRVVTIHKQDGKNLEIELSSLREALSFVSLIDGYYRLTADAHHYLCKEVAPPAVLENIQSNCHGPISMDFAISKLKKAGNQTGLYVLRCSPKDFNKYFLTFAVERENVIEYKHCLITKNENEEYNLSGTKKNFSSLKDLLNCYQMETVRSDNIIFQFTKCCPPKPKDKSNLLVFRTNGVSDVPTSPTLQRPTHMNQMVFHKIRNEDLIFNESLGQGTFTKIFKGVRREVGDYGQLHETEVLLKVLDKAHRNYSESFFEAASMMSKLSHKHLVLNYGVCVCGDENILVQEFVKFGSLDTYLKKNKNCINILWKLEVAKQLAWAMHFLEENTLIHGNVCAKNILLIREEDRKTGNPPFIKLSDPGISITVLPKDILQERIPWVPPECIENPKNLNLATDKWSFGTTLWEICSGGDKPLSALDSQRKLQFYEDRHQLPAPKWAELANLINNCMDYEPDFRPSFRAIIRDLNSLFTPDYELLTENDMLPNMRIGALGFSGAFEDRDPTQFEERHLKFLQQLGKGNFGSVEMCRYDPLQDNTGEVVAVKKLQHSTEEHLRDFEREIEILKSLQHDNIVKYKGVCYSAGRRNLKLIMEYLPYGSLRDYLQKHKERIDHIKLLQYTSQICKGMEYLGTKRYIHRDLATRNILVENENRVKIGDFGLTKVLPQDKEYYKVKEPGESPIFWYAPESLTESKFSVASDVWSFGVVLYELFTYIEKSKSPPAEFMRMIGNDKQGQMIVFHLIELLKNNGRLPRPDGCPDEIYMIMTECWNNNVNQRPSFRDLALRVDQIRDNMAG
T1 sequence (P29597 whole entry): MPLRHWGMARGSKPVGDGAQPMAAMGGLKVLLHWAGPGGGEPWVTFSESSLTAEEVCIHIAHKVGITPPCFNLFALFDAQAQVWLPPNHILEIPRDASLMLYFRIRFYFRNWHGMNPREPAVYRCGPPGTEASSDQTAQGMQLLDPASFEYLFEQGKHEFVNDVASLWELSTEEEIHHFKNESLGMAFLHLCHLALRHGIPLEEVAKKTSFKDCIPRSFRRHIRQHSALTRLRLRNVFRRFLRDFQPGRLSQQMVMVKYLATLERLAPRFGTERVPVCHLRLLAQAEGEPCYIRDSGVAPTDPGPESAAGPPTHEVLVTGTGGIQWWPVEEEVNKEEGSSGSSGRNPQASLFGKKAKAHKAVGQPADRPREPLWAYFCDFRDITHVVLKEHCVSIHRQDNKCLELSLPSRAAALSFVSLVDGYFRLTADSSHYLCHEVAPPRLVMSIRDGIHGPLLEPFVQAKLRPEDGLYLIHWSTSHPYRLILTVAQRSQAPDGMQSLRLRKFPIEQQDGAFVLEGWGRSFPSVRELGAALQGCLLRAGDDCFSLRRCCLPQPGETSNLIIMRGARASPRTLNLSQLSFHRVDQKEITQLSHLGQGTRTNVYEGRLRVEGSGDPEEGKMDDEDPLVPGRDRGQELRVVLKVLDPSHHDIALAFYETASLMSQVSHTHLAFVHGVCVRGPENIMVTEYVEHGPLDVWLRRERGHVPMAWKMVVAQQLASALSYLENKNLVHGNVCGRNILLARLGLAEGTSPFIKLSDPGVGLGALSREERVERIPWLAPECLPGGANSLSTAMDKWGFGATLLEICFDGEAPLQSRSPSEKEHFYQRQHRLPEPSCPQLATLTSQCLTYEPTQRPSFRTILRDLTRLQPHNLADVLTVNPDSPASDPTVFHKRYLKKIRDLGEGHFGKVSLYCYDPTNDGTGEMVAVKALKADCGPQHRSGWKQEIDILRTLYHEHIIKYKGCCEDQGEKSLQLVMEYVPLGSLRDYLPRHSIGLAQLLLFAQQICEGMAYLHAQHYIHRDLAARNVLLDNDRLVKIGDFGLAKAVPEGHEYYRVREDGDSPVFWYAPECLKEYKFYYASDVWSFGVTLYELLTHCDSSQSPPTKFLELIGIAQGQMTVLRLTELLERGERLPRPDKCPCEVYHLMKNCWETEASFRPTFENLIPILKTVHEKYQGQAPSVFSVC

## CC(C)NC(=O)Cn1cc(Nc2ncc(Cl)c(NCc3c(F)cc(F)cc3F)n2)cn1 [Example I-393]
TYK2
  IC50: 0.01 to 0.1 µM
JAK2
  IC50: > 10 µM

## COc1ccc(F)c(CNc2nc(Nc3cnn(CCOC(C)C)c3)ncc2F)c1F [Example I-394]
TYK2
  IC50: 0.1 to 1 µM
JAK2
  IC50: > 10 µM

## CS(=O)(=O)NCc1cccc(CNc2nc(Nc3cnn(CC(=O)N4CCOCC4)c3)ncc2Cl)c1 [Example I-396]
TYK2
  IC50: 0.01 to 0.1 µM
JAK2
  IC50: 1 to 10 µM

## CS(=O)(=O)NCc1cccc(CNc2nc(Nc3cnn(CC(N)=O)c3)ncc2Cl)c1 [Example I-397]
TYK2
  IC50: 0.1 to 1 µM
JAK2
  IC50: 1 to 10 µM

## CN(Cc1cccc(CNc2nc(Nc3cnn(CCO)c3)ncc2Cl)c1)S(C)(=O)=O [Example I-398]
TYK2
  IC50: 0.1 to 1 µM
JAK2
  IC50: 1 to 10 µM

## CS(=O)(=O)NCc1cccc(CNc2nc(Nc3cnn(CC(=O)N4CCC[C@@H]4C#N)c3)ncc2Cl)c1 [Example I-399]
TYK2
  IC50: 0.1 to 1 µM
JAK2
  IC50: 1 to 10 µM

## CS(=O)(=O)NCc1cccc(CNc2nc(Nc3cnn(CC(=O)N4CCC[C@H]4C#N)c3)ncc2Cl)c1 [Example I-400]
TYK2
  IC50: 0.1 to 1 µM
JAK2
  IC50: 1 to 10 µM

## CN(Cc1cccc(CNc2nc(Nc3cnn(CC(=O)N4CCOCC4)c3)ncc2Cl)c1)S(C)(=O)=O [Example I-401]
TYK2
  IC50: 0.1 to 1 µM
JAK2
  IC50: 1 to 10 µM

## Cc1cnc(Nc2cnn(C)c2)nc1NCc1cccc(CNS(C)(=O)=O)c1 [Example I-402]
TYK2
  IC50: 0.1 to 1 µM
JAK2
  IC50: 1 to 10 µM

## COc1c(F)cccc1CNc1nc(Nc2cnn(CC(=O)O)c2)ncc1Cl [Example I-403]
TYK2
  IC50: 0.1 to 1 µM
JAK2
  IC50: 1 to 10 µM

## COc1c(F)cccc1CNc1nc(Nc2cnn(CC(N)=O)c2)ncc1Cl [Example I-404]
TYK2
  IC50: 0.1 to 1 µM
JAK2
  IC50: 0.1 to 1 µM

## NC(=O)Cn1cc(Nc2ncc(Cl)c(NCc3cccnc3O)n2)cn1 [Example I-405]
TYK2
  IC50: 1 to 10 µM
JAK2
  IC50: 1 to 10 µM

## Cn1cc(Nc2ncc(Cl)c(NCc3cccnc3F)n2)cn1 [Example I-406]
TYK2
  IC50: 0.1 to 1 µM
JAK2
  IC50: 0.1 to 1 µM

## CNC(=O)Cn1cc(Nc2ncc(F)c(NCc3cccc(OC(F)F)c3)n2)cn1 [Example I-408]
TYK2
  IC50: 0.01 to 0.1 µM
JAK2
  IC50: > 10 µM

## CNC(=O)Cn1cc(Nc2ncc(F)c(NCc3c(F)ccc(F)c3F)n2)cn1 [Example I-410]
TYK2
  IC50: 0.01 to 0.1 µM
JAK2
  IC50: 1 to 10 µM

## CN(C)C(=O)Cn1cc(Nc2ncc(F)c(NCc3c(F)ccc(F)c3F)n2)cn1 [Example I-411]
TYK2
  IC50: 0.01 to 0.1 µM
JAK2
  IC50: 1 to 10 µM

## Cn1cc(Nc2ncc(Cl)c(NCc3cc(OC(F)F)ccc3F)n2)cn1 [Example I-412]
TYK2
  IC50: 0.01 to 0.1 µM
JAK2
  IC50: 1 to 10 µM

## OCCn1cc(Nc2ncc(Cl)c(NCc3cc(OC(F)F)ccc3F)n2)cn1 [Example I-413]
TYK2
  IC50: 0.01 to 0.1 µM
JAK2
  IC50: 0.1 to 1 µM

## CN(C)C(=O)Cn1cc(Nc2ncc(Cl)c(NCc3cc(OC(F)F)ccc3F)n2)cn1 [Example I-414]
TYK2
  IC50: 0.01 to 0.1 µM
JAK2
  IC50: 1 to 10 µM

## CS(=O)(=O)NCc1cccc(CNc2nc(Nc3cnn(CCO)c3)ncc2F)c1 [Example I-415]
TYK2
  IC50: 0.1 to 1 µM
JAK2
  IC50: 1 to 10 µM

## CN(C)C(=O)Cn1cc(Nc2ncc(Cl)c(NCc3cccc(CNS(C)(=O)=O)c3)n2)cn1 [Example I-416]
TYK2
  IC50: 0.1 to 1 µM
JAK2
  IC50: 0.1 to 1 µM

## CS(=O)(=O)NCc1cccc(CNc2nc(Nc3cnn(CCO)c3)ncc2Cl)c1 [Example I-417]
TYK2
  IC50: 0.1 to 1 µM
JAK2
  IC50: 0.1 to 1 µM

## Cc1cnc(Nc2cnn(C)c2)nc1NCc1c(F)cccc1F [Example I-418]
TYK2
  IC50: 0.01 to 0.1 µM
JAK2
  IC50: 0.1 to 1 µM

## CNC(=O)Cn1cc(Nc2ncc(C)c(NCc3c(F)cccc3F)n2)cn1 [Example I-419]
TYK2
  IC50: 0.01 to 0.1 µM
JAK2
  IC50: 0.1 to 1 µM

## Cc1cnc(Nc2cnn(C)c2)nc1NCc1c(F)ccc(F)c1F [Example I-420]
TYK2
  IC50: 0.01 to 0.1 µM
JAK2
  IC50: 0.1 to 1 µM

## CNC(=O)Cn1cc(Nc2ncc(C)c(NCc3c(F)ccc(F)c3F)n2)cn1 [Example I-421]
TYK2
  IC50: ≤ 0.01 µM
JAK2
  IC50: 0.1 to 1 µM

## Cc1cnc(Nc2cnn(CC(=O)N(C)C)c2)nc1NCc1c(F)ccc(F)c1F [Example I-422]
TYK2
  IC50: ≤ 0.01 µM
JAK2
  IC50: 0.1 to 1 µM

## Cc1cnc(Nc2cnn(CC(=O)N3CCOCC3)c2)nc1NCc1c(F)ccc(F)c1F [Example I-423]
TYK2
  IC50: ≤ 0.01 µM
JAK2
  IC50: 0.1 to 1 µM

## Cc1cnc(Nc2cnn(CC(=O)O)c2)nc1NCc1c(F)ccc(F)c1F [Example I-424]
TYK2
  IC50: 0.01 to 0.1 µM
JAK2
  IC50: 0.1 to 1 µM

## O=C(O)Cn1cc(Nc2ncc(F)c(NCc3cccc(OC(F)F)c3)n2)cn1 [Example I-425]
TYK2
  IC50: 0.01 to 0.1 µM
JAK2
  IC50: > 10 µM

## COc1ccc(F)c(CNc2nc(Nc3cnn(CC(=O)O)c3)ncc2F)c1F [Example I-426]
TYK2
  IC50: 0.01 to 0.1 µM
JAK2
  IC50: > 10 µM

## COc1ccc(F)c(CNc2nc(Nc3cnn(CC(=O)NC(C)C)c3)ncc2Cl)c1F [Example I-427]
TYK2
  IC50: 0.01 to 0.1 µM
JAK2
  IC50: 1 to 10 µM

## COc1ccc(F)c(CNc2nc(Nc3cnn(CC(=O)NCC(C)C)c3)ncc2Cl)c1F [Example I-428]
TYK2
  IC50: 0.01 to 0.1 µM
JAK2
  IC50: 1 to 10 µM

## CC(C)(C)NC(=O)Cn1cc(Nc2ncc(F)c(NCc3c(F)cc(F)cc3F)n2)cn1 [Example I-429]
TYK2
  IC50: 0.01 to 0.1 µM
JAK2
  IC50: 1 to 10 µM

## CC(C)(CF)NC(=O)Cn1cc(Nc2nccc(NCc3c(F)cc(F)cc3F)n2)cn1 [Example I-430]
TYK2
  IC50: 0.01 to 0.1 µM
JAK2
  IC50: 1 to 10 µM

## CC(NC(=O)Cn1cc(Nc2nccc(NCc3c(F)cc(F)cc3F)n2)cn1)C1CCCO1 (stereo not shown) [Example I-431]
TYK2
  IC50: 0.01 to 0.1 µM
JAK2
  IC50: > 10 µM

## O=C(Cn1cc(Nc2nccc(NCc3c(F)cc(F)cc3F)n2)cn1)NCC1COCCO1 (stereo not shown) [Example I-432]
TYK2
  IC50: 0.01 to 0.1 µM
JAK2
  IC50: 1 to 10 µM

## Cc1cnc(Nc2cnn(CCO)c2)nc1NCc1ccccc1S(C)(=O)=O [Example I-433]
TYK2
  IC50: 0.1 to 1 µM
JAK2
  IC50: 1 to 10 µM

## Cc1cnc(Nc2cnn(CC(N)=O)c2)nc1NCc1ccccc1S(C)(=O)=O [Example I-434]
TYK2
  IC50: 0.1 to 1 µM
JAK2
  IC50: 1 to 10 µM

## CS(=O)(=O)c1ccccc1CNc1nc(Nc2cnn(CCO)c2)ncc1F [Example I-435]
TYK2
  IC50: 0.1 to 1 µM
JAK2
  IC50: 1 to 10 µM

## CS(=O)(=O)c1ccccc1CNc1nc(Nc2cnn(CC(N)=O)c2)ncc1F [Example I-436]
TYK2
  IC50: 0.1 to 1 µM
JAK2
  IC50: 1 to 10 µM

## Cc1cccc(F)c1CNc1ccnc(Nc2cnn(C)c2)n1 [Example I-437]
TYK2
  IC50: 0.01 to 0.1 µM
JAK2
  IC50: 1 to 10 µM

## CNC(=O)Cn1cc(Nc2ncc(Cl)c(NCc3cc(F)ccc3S(C)(=O)=O)n2)cn1 [Example I-438]
TYK2
  IC50: 0.01 to 0.1 µM
JAK2
  IC50: 0.1 to 1 µM

## CS(=O)(=O)c1cccc(CNc2nc(Nc3cnn(CC(N)=O)c3)ncc2Cl)c1 [Example I-439]
TYK2
  IC50: 0.1 to 1 µM
JAK2
  IC50: 0.1 to 1 µM

## CS(=O)(=O)c1cccc(CNc2nc(Nc3cnn(CC(=O)NC4CC4)c3)ncc2Cl)c1 [Example I-440]
TYK2
  IC50: 0.01 to 0.1 µM
JAK2
  IC50: 1 to 10 µM

## CS(=O)(=O)c1cccc(CNc2nc(Nc3cnn(CC(=O)NCCO)c3)ncc2Cl)c1 [Example I-441]
TYK2
  IC50: 0.1 to 1 µM
JAK2
  IC50: 1 to 10 µM

## Cn1cc(Nc2ncc(Cl)c(NCc3cccc(CS(C)(=O)=O)c3)n2)cn1 [Example I-442]
TYK2
  IC50: 1 to 10 µM
JAK2
  IC50: 1 to 10 µM

## CS(=O)(=O)Cc1cccc(CNc2nc(Nc3cnn(CC(N)=O)c3)ncc2Cl)c1 [Example I-443]
TYK2
  IC50: 0.1 to 1 µM
JAK2
  IC50: 1 to 10 µM

## CNC(=O)Cn1cc(Nc2ncc(Cl)c(NCc3cc(S(C)(=O)=O)ccc3OC)n2)cn1 [Example I-444]
TYK2
  IC50: 0.01 to 0.1 µM
JAK2
  IC50: 0.1 to 1 µM

## CNC(=O)Cn1cc(Nc2ncc(Cl)c(NCc3cccc(CS(C)(=O)=O)c3)n2)cn1 [Example I-445]
TYK2
  IC50: 0.1 to 1 µM
JAK2
  IC50: 1 to 10 µM

## COc1ccc(S(C)(=O)=O)cc1CNc1nc(Nc2cnn(C)c2)ncc1F [Example I-446]
TYK2
  IC50: 0.01 to 0.1 µM
JAK2
  IC50: 1 to 10 µM

## CNC(=O)Cn1cc(Nc2ncc(F)c(NCc3cc(S(C)(=O)=O)ccc3OC)n2)cn1 [Example I-448]
TYK2
  IC50: 0.01 to 0.1 µM
JAK2
  IC50: 1 to 10 µM

## COc1ccc(S(C)(=O)=O)cc1CNc1nc(Nc2cnn(C)c2)ncc1Cl [Example I-449]
TYK2
  IC50: 0.01 to 0.1 µM
JAK2
  IC50: 0.1 to 1 µM

## CS(=O)(=O)c1ccccc1CNc1nc(Nc2cnn(CC(N)=O)c2)ncc1Cl [Example I-450]
TYK2
  IC50: 0.1 to 1 µM
JAK2
  IC50: 0.1 to 1 µM

## CNC(=O)Cn1cc(Nc2ncc(Cl)c(NCc3ccccc3S(C)(=O)=O)n2)cn1 [Example I-451]
TYK2
  IC50: 1 to 10 µM
JAK2
  IC50: 1 to 10 µM

## CN(C)C(=O)Cn1cc(Nc2ncc(Cl)c(NCc3ccccc3S(C)(=O)=O)n2)cn1 [Example I-452]
TYK2
  IC50: 0.1 to 1 µM
JAK2
  IC50: 0.1 to 1 µM
